Laboratory results from patent US5980913A, “Peptides having immunomodulatory activity” (Biochem Pharma, Inc., priority 1994, dated 1999).
Where a SMILES comes first, the peptide text is derived from it. [ ]: non-standard residue; d: D form.

Tests used:
[1] = system: C57BL/6 lymphocytes with irradiated DBA/2 cells; test: Mixed lymphocyte reaction (MLR), 3H thymidine uptake; assay type: cell-based, mice; conditions: 10^-7 M
Text: 1. Cytotoxic T Lymphocytes (CTL) Mixed Lymphocyte Reaction (MLR) and Mitogenic Response Assays
The protocols used are described in Hudson L., Haay F., Pratical immunology, 3rd edition, Blackwell, Scientific publications, Oxford 1989, p. 158-162, and p.447.
Lymphocytes were isolated from C57BL/6 mice and DBA/2 mice in accordance to techniques well known in the art. Cell concentration was adjusted to 10×10^6 cell/ml for each assay. The cells isolated from DBA/2 mice were irradiated with 3000 Rads.
In a 6 well plate, each well was set up with:
The cells were incubated for five days at 37° C. in 5% CO2, after which CTL and MLR assays were performed.
b) Mixed Lymphocyte Reaction (MLR)
Mixed lymphocyte reaction is an in vitro counterpart of the allograft rejection. Briefly, lymphocyte activation (mitotic response) is obtained when cells from two inbred strains or from two outbred individuals of any species are mixed in in vitro culture. To have a unidirectional response, the proliferation of either cell type may be blocked with X-ray irradiation or mitomycin C treatment. After 4 days incubation, ^3 H thymidine uptake and cytotoxicity assays (CTL) were performed. The cells were then resuspended and 100 μl of cell suspension was deposited in each well of a 96 well plate. 1 μCi of tritiated thymidine was added for 6 hours. After incubation, the cells were then harvested and counted using a Microbeta counter.

[2] = Stability in Human Whole Blood at 37° C., HPLC; assay type: in vitro ADME; set-up: half-life: dose or concentration left out as unconfirmed; conditions: for HPLC AREA: human whole blood 37° C.
Description: The procedures are the same as example 5 with the exceptions that human whole blood was substituted for rat whole blood, and that in Step 2, (blood incubation) aliquotes were taken at the following times: […]

[3] = system: spleen cell subsets (cell surface antigens); test: In vivo/ex vivo immunophenotyping in the spleen, mice treated 4 consecutive days; set-up: species or system C57BL/6 mice
Description: C57BL.backslash.6 mice are treated with 0, 50, 100, 200, and 300 mg/kg of drug (in saline) for 4 consecutive days. Blood is taken by cardiac puncture on day 5, and the lymphocytes are isolated from spleen in the following manner:
The spleen is aseptically removed and mashed by pressing against a steel strainer with a rubber plunger. The cell suspension is separated from the clumps by letting them settle at the bottom of the tube. The cell suspension is then separated on a Lymphocyte M layer and the interface is recovered and resuspended in media.
1. Immunophenotyping (blood and spleen)
Cell immunophenotyping is performed on blood and spleen. The following cell surface antigens are analyzed:
CD4 (T helper/inducer, binds class II-restricted T cells);
CD8 (cytotoxic T cells, CTL adhesion);
MAC-1 (monocyte/macrophage);
NK (natural killer cells);
CD45 (all leukocytes, protein tyrosine phosphatase).

HPLC AREA ([2]; 0 min): 2857082.5
HPLC AREA ([2]; 15 min): 3066465
HPLC AREA ([2]; 30 min): 3017509.5
HPLC AREA ([2]; 60 min): 3135696.5
HPLC AREA ([2]; 90 min): 3005211
HPLC AREA ([2]; 120 min): 3476665.5
HPLC AREA ([2]; 150 min): 3063052
HPLC AREA ([2]; 180 min): 3108157
HPLC AREA ([2]; 210 min): 3181899
half-life ([2]; human, human whole blood, 37° C.): > 3.5 h
Structure (SMILES): NCCCC[C@@H](N)C(=O)N[C@@H](CC(N)=O)C(=O)N1CCC[C@H]1C(=O)N[C@@H](Cc1ccc(O)cc1)C(=O)O [PEPTIDE #5, H-(D-Lys)-Asn-Pro-Tyr-OH] (H-[dK]NPY-OH)
MLR [1]: 2.1 ×
CD4+ CD8+ cell subset, relative percentage, MEAN ([3]; 50 mg/kg, first assay): 0.58
CD4+ CD8- cell subset, relative percentage, MEAN ([3]; 50 mg/kg, first assay): 33.05
CD4+ CD11b+ cell subset, relative percentage, MEAN ([3]; 50 mg/kg, first assay): 0.83
CD4+ CD11b- cell subset, relative percentage, MEAN ([3]; 50 mg/kg, first assay): 23.88
CD4- CD8+ cell subset, relative percentage, MEAN ([3]; 50 mg/kg, first assay): 5.73
CD4- CD8- cell subset, relative percentage, MEAN ([3]; 50 mg/kg, first assay): 60.65
CD4- CD11b+ cell subset, relative percentage, MEAN ([3]; 50 mg/kg, first assay): 3.63
CD4- CD11b- cell subset, relative percentage, MEAN ([3]; 50 mg/kg, first assay): 71.73
CD45+ CD4+ cell subset, relative percentage, MEAN ([3]; 50 mg/kg, first assay): 21.43
CD45+ CD4- cell subset, relative percentage, MEAN ([3]; 50 mg/kg, first assay): 55.25
CD45+ CD8+ cell subset, relative percentage, MEAN ([3]; 50 mg/kg, first assay): 5.38
CD45+ CD8- cell subset, relative percentage, MEAN ([3]; 50 mg/kg, first assay): 66.00
CD45- CD4+ cell subset, relative percentage, MEAN ([3]; 50 mg/kg, first assay): 13.28
CD45- CD4- cell subset, relative percentage, MEAN ([3]; 50 mg/kg, first assay): 10.03
CD45- CD8+ cell subset, relative percentage, MEAN ([3]; 50 mg/kg, first assay): 0.63
CD45- CD8- cell subset, relative percentage, MEAN ([3]; 50 mg/kg, first assay): 28.05
Ly5(B) cell subset, relative percentage, MEAN ([3]; 50 mg/kg, first assay): 57.85
NK+ CD3+ cell subset, relative percentage, MEAN ([3]; 50 mg/kg, first assay): 1.50
NK+ CD3- cell subset, relative percentage, MEAN ([3]; 50 mg/kg, first assay): 3.78
NK- CD3+ cell subset, relative percentage, MEAN ([3]; 50 mg/kg, first assay): 38.13
NK- CD3- cell subset, relative percentage, MEAN ([3]; 50 mg/kg, first assay): 56.68
TCR(T) cell subset, relative percentage, MEAN ([3]; 50 mg/kg, first assay): 40.23
CD4+ CD8+ cell subset, relative percentage, MEAN ([3]; 50 mg/kg, second assay): 0.63
CD4+ CD8- cell subset, relative percentage, MEAN ([3]; 50 mg/kg, second assay): 36.53
CD4+ CD11b+ cell subset, relative percentage, MEAN ([3]; 50 mg/kg, second assay): 0.38
CD4+ CD11b- cell subset, relative percentage, MEAN ([3]; 50 mg/kg, second assay): 14.85
CD4- CD8+ cell subset, relative percentage, MEAN ([3]; 50 mg/kg, second assay): 5.85
CD4- CD8- cell subset, relative percentage, MEAN ([3]; 50 mg/kg, second assay): 57.03
CD4- CD11b+ cell subset, relative percentage, MEAN ([3]; 50 mg/kg, second assay): 3.60
CD4- CD11b- cell subset, relative percentage, MEAN ([3]; 50 mg/kg, second assay): 81.15
CD45+ CD4+ cell subset, relative percentage, MEAN ([3]; 50 mg/kg, second assay): 29.23
CD45+ CD4- cell subset, relative percentage, MEAN ([3]; 50 mg/kg, second assay): 49.85
CD45+ CD8+ cell subset, relative percentage, MEAN ([3]; 50 mg/kg, second assay): 6.03
CD45+ CD8- cell subset, relative percentage, MEAN ([3]; 50 mg/kg, second assay): 75.15
CD45- CD4+ cell subset, relative percentage, MEAN ([3]; 50 mg/kg, second assay): 8.83
CD45- CD4- cell subset, relative percentage, MEAN ([3]; 50 mg/kg, second assay): 12.05
CD45- CD8+ cell subset, relative percentage, MEAN ([3]; 50 mg/kg, second assay): 0.18
CD45- CD8- cell subset, relative percentage, MEAN ([3]; 50 mg/kg, second assay): 18.65
Ly5(B) cell subset, relative percentage, MEAN ([3]; 50 mg/kg, second assay): 41.20
NK+ CD3+ cell subset, relative percentage, MEAN ([3]; 50 mg/kg, second assay): 2.18
NK+ CD3- cell subset, relative percentage, MEAN ([3]; 50 mg/kg, second assay): 3.83
NK- CD3+ cell subset, relative percentage, MEAN ([3]; 50 mg/kg, second assay): 39.60
NK- CD3- cell subset, relative percentage, MEAN ([3]; 50 mg/kg, second assay): 54.38
TCR(T) cell subset, relative percentage, MEAN ([3]; 50 mg/kg, second assay): 51.58
CD4+ CD8+ cell subset, relative percentage, MEAN ([3]; 100 mg/kg, first assay): 0.70
CD4+ CD8- cell subset, relative percentage, MEAN ([3]; 100 mg/kg, first assay): 36.85
CD4+ CD11b+ cell subset, relative percentage, MEAN ([3]; 100 mg/kg, first assay): 0.95
CD4+ CD11b- cell subset, relative percentage, MEAN ([3]; 100 mg/kg, first assay): 23.73
CD4- CD8+ cell subset, relative percentage, MEAN ([3]; 100 mg/kg, first assay): 7.03
CD4- CD8- cell subset, relative percentage, MEAN ([3]; 100 mg/kg, first assay): 55.50
CD4- CD11b+ cell subset, relative percentage, MEAN ([3]; 100 mg/kg, first assay): 4.10
CD4- CD11b- cell subset, relative percentage, MEAN ([3]; 100 mg/kg, first assay): 71.23
CD45+ CD4+ cell subset, relative percentage, MEAN ([3]; 100 mg/kg, first assay): 23.25
CD45+ CD4- cell subset, relative percentage, MEAN ([3]; 100 mg/kg, first assay): 52.10
CD45+ CD8+ cell subset, relative percentage, MEAN ([3]; 100 mg/kg, first assay): 6.43
CD45+ CD8- cell subset, relative percentage, MEAN ([3]; 100 mg/kg, first assay): 63.43
CD45- CD4+ cell subset, relative percentage, MEAN ([3]; 100 mg/kg, first assay): 15.35
CD45- CD4- cell subset, relative percentage, MEAN ([3]; 100 mg/kg, first assay): 9.30
CD45- CD8+ cell subset, relative percentage, MEAN ([3]; 100 mg/kg, first assay): 0.83
CD45- CD8- cell subset, relative percentage, MEAN ([3]; 100 mg/kg, first assay): 29.30
